According to patent US20090012089A1, “Oxazolidinone Compounds and Their Use as Metabotropic Glutamate Receptor Potentiators” (ASTRAZENECA AB, priority 2005, published 2009):

Target: T1, human mGluR2 (Homo sapiens, UniProt Q14416)
T1 construct: expressed in transfected cells; host or cells: CHO cells, stably transfected; membrane preparation
Assay: [35S]-GTPγS binding assay of mGluR2 receptor activation (allosteric activator activity) with CHO cell membranes
Type: biochemical
Settings: membranes from CHO cells stably expressing human mGluR2; in presence of 1 μM glutamate
Protocol: A [^35S]-GTPγS binding assay was used to functionally assay mGluR2 receptor activation. The allosteric activator activity of compounds at the human mGluR2 receptor were measured using a [^35S]-GTPγS binding assay with membranes prepared from CHO cells which stably express the human mGluR2. The assay is based upon the principle that agonists bind to G-protein coupled receptors to stimulate GDP-GTP exchange at the G-protein. Since [^35S]-GTPγS is a non-hydrolyzable GTP analog, it can be used to provide an index of GDP-GTP exchange and, thus, receptor activation. The GTPγS binding assay therefore provides a quantitative measure of receptor activation.
Membranes were prepared from CHO cells stably transfected with human mGluR2. Membranes (30 μg protein) were incubated with test compound (3 nM to 300 μM) for 15 minutes at room temperature prior to the addition of 1 μM glutamate, and incubated for 30 min at 30° C. in 500 μl assay buffer (20 mM HEPES, 100 mM NaCl, 10 mM MgCl2), containing 30 μM GDP and 0.1 nM [^35S]-GTPγS (1250 Ci/mmol). Reactions were carried out in triplicate in 2 ml polypropylene 96-well plates. Reactions were terminated by vacuum filtration using a Packard 96-well harvester and Unifilter-96, GF/B filter microplates. The filter plates were washed 4×1.5 ml with ice-cold wash buffer (10 mM sodium phosphate buffer, pH 7.4). The filter plates were dried and 35 μl of scintillation fluid (Microscint 20) was added to each well. The amount of radioactivity bound was determined by counting plates on the Packard TopCount. Data was analyzed using GraphPad Prism, and EC50 and Emax values (relative to the maximum glutamate effect) were calculated using non-linear regression.

T1 sequence (Q14416 19-872): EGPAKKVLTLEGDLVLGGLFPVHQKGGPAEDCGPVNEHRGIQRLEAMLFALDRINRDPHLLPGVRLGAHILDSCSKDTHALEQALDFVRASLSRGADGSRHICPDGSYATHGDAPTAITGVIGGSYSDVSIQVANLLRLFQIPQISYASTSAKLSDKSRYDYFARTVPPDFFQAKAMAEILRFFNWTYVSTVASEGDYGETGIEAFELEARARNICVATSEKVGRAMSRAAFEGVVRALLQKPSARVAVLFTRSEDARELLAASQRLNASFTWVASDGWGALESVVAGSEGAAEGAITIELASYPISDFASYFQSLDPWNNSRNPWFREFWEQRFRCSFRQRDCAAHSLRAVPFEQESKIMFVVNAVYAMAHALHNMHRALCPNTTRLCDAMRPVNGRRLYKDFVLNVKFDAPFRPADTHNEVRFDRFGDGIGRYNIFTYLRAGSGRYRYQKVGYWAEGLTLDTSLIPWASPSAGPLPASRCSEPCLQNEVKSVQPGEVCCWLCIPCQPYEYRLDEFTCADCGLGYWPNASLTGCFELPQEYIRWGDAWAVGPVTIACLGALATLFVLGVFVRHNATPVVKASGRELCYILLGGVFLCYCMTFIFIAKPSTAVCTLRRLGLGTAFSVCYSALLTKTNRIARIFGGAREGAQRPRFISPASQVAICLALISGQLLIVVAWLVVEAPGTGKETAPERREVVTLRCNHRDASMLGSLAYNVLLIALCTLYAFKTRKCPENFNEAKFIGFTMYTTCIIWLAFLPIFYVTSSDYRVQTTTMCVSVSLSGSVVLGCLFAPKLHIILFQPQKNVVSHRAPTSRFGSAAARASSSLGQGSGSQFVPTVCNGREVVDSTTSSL

EC50 [nM]	Compound
120	O=C(NC1CCN(Cc2ccccc2)C1)c1ccc(-c2ccc(CN3C[C@@H](c4ccccc4)OC3=O)cc2)cc1 (stereo in doubt) [Example 10.29, 4′-(2-Oxo-5-(R)-phenyl-oxazolidin-3-ylmethyl)-biphenyl-4-carboxylicacid (1-benzyl-pyrrolidin-3-(S)-yl)-amide]
1960	O=C1O[C@H](c2ccccc2)CN1Cc1ccc(OC(F)(F)F)cc1 [Example 3.1, 5-(R)-Phenyl-3-(4-trifluoromethoxy-benzyl)-oxazolidin-2-one]
390	O=C1OC(c2ccc(F)cc2)CN1Cc1ccc(Oc2ccccc2)cc1 (centres unmarked) [Example 13.5, 5-(4-Fluoro-phenyl)-3-(4-phenoxy-benzyl)-oxazolidin-2-one]
910	COc1cncc(-c2ccc(C3CN(Cc4ccc(OC(F)(F)F)cc4)C(=O)O3)cc2)c1 (centres unmarked) [Example 17.2, 5-[4-(5-Methoxy-pyridin-3-yl)-phenyl]-3-(4-trifluoromethoxy-benzyl)-oxa-zolidin-2-one]
3100	CN(C)CCNC(=O)c1cccc(-c2ccc(C3CN(Cc4ccc(Cl)cc4)C(=O)O3)cc2)c1 (centres unmarked) [Example 17.3, 4′-[3-(4-Chloro-benzyl)-2-oxo-oxa-zolidin-5-yl]-biphenyl-3-carboxylic acid(2-dimethylamino-ethyl)-amide]
